Measurements taken from US20250195525A1, “ANGIOTENSIN II RECEPTOR ANTAGONIST FOR THE PREVENTION OF SYSTEMIC DISEASES IN CATS” (Boehringer Ingelheim Vetmedica GmbH, priority 2023, published 2025).

Columns and labels:
[1] = human patients, high dose of 160 mg daily (80 mg twice daily); cited from earlier work
[2] = cat, in vivo
[3] = test system: angiotensin II receptor 1; test: Angiotensin II induced blood pressure response in laboratory cats; type: in vivo, cat
Description: Moreover, a study in laboratory cats was established to investigate the Angiotensin II induced increase in diastolic blood pressure prior to and after administration of telmisartan. This test was established to estimate the potency as well as the duration of action of sartans, in particular of telmisartan in cats.

cats with CKD = test: placebo controlled field trial in client-owned cats with CKD: progression of SBP; type: in vivo, cat; details: 1 mg/kg body weight
Experimental: This prospective, placebo controlled, randomized, double-blind, multicenter, multinational field study enrolled client-owned cats that were presented in the normal course of veterinary practice to evaluate safety and efficacy of telmisartan on progression-free survival time in cats with CKD compared to placebo. In this study 545 cats were randomly assigned to telmisartan (1 mg/kg body weight) or placebo in a ratio of 1:1.
At least two weeks before the start of the field study, creatinine value and Urine Specific Gravity (USG) were determined. Only cats were included in the study which were diagnosed with CKD, meaning a creatinine value ≥1.9 mg/dl (168 μmol/L) and <5.0 mg/dL (440 μmol/L) and a USG of <1.035.
At all visit timepoints, SBP was recorded prior to performing any other procedures scheduled for the animal during the visit. • 5 SBP readings were taken following a ≥10 minute acclimation period. • The highest and the lowest SBP were excluded and a mean of the remaining 3 SBPs was used to obtain the mean SBP for that visit. Visits were scheduled on Day 0, 30, 90, 180, 270, 365, 450, 540, 630, 730, 810, 900, 990, 1080, 1170, 1260, 1350, 1440 (each ±7) and, if applicable, additional visits every 3 months (+7 days).

AUC (in vivo; iv): 385 ng·h/mL
AUC (in vivo; po): 150 ng·h/mL
mean V/f oral (second mention, after the intravenous values) [2]: 8.8 L/kg
mean V/f oral ([2]; po): 20.4 L/kg
Structure (SMILES): CCCc1nc2c(C)cc(-c3nc4ccccc4n3C)cc2n1Cc1ccc(-c2ccccc2C(=O)O)cc1 [Telmisartan, 4′-[2-n-propyl-4-methyl-6-(1-methylbenzimidazol-2-yl)-benzimidazol-1-ylmethyl]-biphenyl-2-carboxylic acid]
plasma level (Cmax±SD) [1]: about 2800±2400 ng/ml
inhibition of the blood pressure response ([3]; cats, doses of less than 0.05 mg per kg body weight, majority of the tested cats): about 75%
diastolic blood pressure responses to increasing intravenous doses of Angiotensin II ([3]; laboratory cats, approximately 24 hours after the last oral dosing, target dose compared with Placebo): significantly reduced
Time to event for progression of SBP (up to 160 mmHg), median no. of days (cats with CKD): 446.0 days
delay in reaching the endpoint of SBP of 160 mmHg versus placebo (median number of days) (cats with CKD; compared to placebo): 84.5 days
Mean probability for progression of SBP (cats with CKD; progression = SBP ≥160 mmHg and increase of >20 mmHg compared to baseline): 0.035
